This assay deals with A375-NRAS^Q61K cells. Kind of assay: CTGlo Cell Viability Assay, A375-NRAS^Q61K (A375.11) cells, 96 hours. It counts as cell-based, human. To be noted: A375.11 (A375-NRAS^Q61K) cells; for Emax / CTGlo A375.11 96 hours Emax: lowest % viability achieved. The method in brief: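 Viability as CellTiter-Glo ATP luminescence after 96 h compound exposure at 37 °C; A375.11 (BRAF V600E/NRAS Q61K) cells at 250/well, top final concentration 10 μM in half-log steps. Signal was background-corrected and set relative to DMSO controls. A 4-parameter logistic fit gave GI50 (50% crossing) and Emax.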

In the case of `CCN(C)S(=O)(=O)Nc1ccc(F)c(Oc2ccc3ncn(C4CC5(CCN(C6CCC(c7cc8c(cc7F)c(N7CCC(=O)NC7=O)nn8C)CC6F)CC5)C4)c(=O)c3c2)c1F` (single isomer, unassigned) [Compound 184], the concentration for 50% growth inhibition (GI50) fell in the range of 1 to 10 µM. For the setting “Homo sapiens, 96 h”, this compound returned an Emax of 50 to 90%.

For the compound `CCN(C)S(=O)(=O)Nc1ccc(F)c(Oc2ccc3ncc([C@H]4COC5(CCN(C6CCC(c7cc8c(cc7F)c(N7CCC(=O)NC7=O)nn8C)CC6F)CC5)C4)nc3c2)c1C#N` (single isomer, unassigned) [Compound 160], for the setting “Homo sapiens, 96 h”, the GI50 is less than 1 µM and the Emax was in the range of 50 to 90%.

For the compound `CCN(C)S(=O)(=O)Nc1ccc(F)c(Oc2ccc3ncn([C@H]4COC5(CCN(C6CCC(c7ccc(NC8CCC(=O)NC8=O)cc7F)CC6)CC5)C4)c(=O)c3c2F)c1C#N` (single isomer, unassigned) [Compound 50], for the setting “Homo sapiens, 96 h”, the GI50 is less than 1 µM and the Emax is less than 50%.

As to `CCN(C)S(=O)(=O)Nc1ccc(F)c(Oc2ccc3ncc(OC4CC5(CCN(C6CCC(c7cc8c(cc7F)c(N7CCC(=O)NC7=O)nn8C)CC6)CC5)C4)nc3c2)c1C#N` (single isomer, unassigned) [Compound 218, 7-[2-cyano-3-[[ethyl(methyl)sulfamoyl]amino]-6-fluoro-phenoxy]-2-[[7-[4-[3-(2,4-dioxohexahydropyrimidin-1-yl)-5-fluoro-1-methyl-indazol-6-yl]cyclohexyl]-7-azaspiro[3.5]nonan-2-yl]oxy]quinoxaline], the GI50 was less than 1 µM. In addition, the Emax (Homo sapiens, 96 h) is 50 to 90%.

Take `CCN(C)S(=O)(=O)Nc1ccc(F)c(Oc2ccc3ncn([C@H]4COC5(CCN(C6CCC(c7cc8c(cc7F)c(N7CCC(=O)NC7=O)nn8C)CC6)CC5)C4)c(=O)c3c2)c1F` (single isomer, unassigned) [Compound 71]: under “Homo sapiens, 96 h”, the GI50 is less than 1 µM and the Emax was less than 50%.

Consider `CCN(C)S(=O)(=O)Nc1ccc(F)c(Oc2ccc3ncn([C@H]4COC5(CCC(N6CCC(c7cc8c(cc7F)c(N7CCC(=O)NC7=O)nn8C)C(F)(F)C6)CC5)C4)c(=O)c3c2)c1C#N` (single isomer, unassigned) [Compound 39], for which the GI50 was less than 1 µM and the “CTGlo A375.11 96 hours Emax” value is recorded as “*** (<=50%)”.

Under “Homo sapiens, 96 h”, `Cn1nc(N2CCC(=O)NC2=O)c2cc(F)c(C3CCC(N4CCC5(CC4)CC(n4cnc6ccc(Oc7c(F)ccc(NS(=O)(=O)C8CCCC8)c7C#N)cc6c4=O)C5)CC3)cc21` (single isomer, unassigned) [Compound 93, N-[2-cyano-3-[3-[7-[4-[3-(2,4-dioxohexahydropyrimidin-1-yl)-5-fluoro-1-methyl-indazol-6-yl]cyclohexyl]-7-azaspiro[3.5]nonan-2-yl]-4-oxo-quinazolin-6-yl]oxy-4-fluoro-phenyl]cyclopentanesulfonamide] showed a GI50 of less than 1 µM and an Emax of less than 50%.

Where the note is “Homo sapiens, 96 h”, `CCN(C)S(=O)(=O)Nc1ccc(F)c(C(=O)c2ccc3ncn(C4CC5(CCN(C6CCC(c7cc8c(cc7F)c(N7CCC(=O)NC7=O)nn8C)CC6)CC5)C4)c(=O)c3c2)c1F` (single isomer, unassigned) [Compound 182, 3-[7-[4-[3-(2,4-dioxohexahydropyrimidin-1-yl)-5-fluoro-1-methyl-indazol-6-yl]cyclohexyl]-7-azaspiro[3.5]nonan-2-yl]-6-[3-[[ethyl(methyl)sulfamoyl]amino]-2,6-difluoro-benzoyl]-4-oxo-quinazoline] showed a GI50 of 1 to 10 µM and an Emax of 50 to 90%.

Consider `CCN(C)S(=O)(=O)Nc1ccc(F)c(Oc2ccc3ncn([C@@H]4COC5(CCN(C6CCC(c7cc8c(cc7F)c(N7CCC(=O)NC7=O)nn8C)CC6)CC5)C4)c(=O)c3c2F)c1C#N` (single isomer, unassigned) [Compound 46], for which, where the note is “Homo sapiens, 96 h”, the GI50 was less than 1 µM and the Emax is less than 50%.

Under “Homo sapiens, 96 h”, `CCN(C)S(=O)(=O)Nc1ccc(F)c(Oc2ccc3ncn([C@H]4COC5(CCN(C6CC7(C6)CN(c6cc8c(cc6F)c(N6CCC(=O)NC6=O)nn8C)C7)CC5)C4)c(=O)c3c2)c1C#N` [Compound 26, (3R)-3-[6-[2-cyano-3-[[ethyl(methyl)sulfamoyl]amino]-6-fluoro-phenoxy]-4-oxo-quinazolin-3-yl]-8-[2-[3-(2,4-dioxohexahydropyrimidin-1-yl)-5-fluoro-1-methyl-indazol-6-yl]-2-azaspiro[3.3]heptan-6-yl]-1-oxa-8-azaspiro[4.5]decane] registered a GI50 of less than 1 µM and an Emax of 50 to 90%.

For the compound `CCN(C)S(=O)(=O)Nc1ccc(F)c(Oc2ccc3ncn([C@H]4COC5(CCN(C6CCC(c7ccc(N[C@H]8CCC(=O)NC8=O)cc7F)CC6)CC5)C4)c(=O)c3c2)c1C#N` (single isomer, unassigned) [Compound 3], for the setting “Homo sapiens, 96 h”, the GI50 was less than 1 µM and the Emax was less than 50%.

For `CCN(C)S(=O)(=O)Nc1ccc(F)c(Oc2ccc3ncn([C@H]4COC5(CCN(C6CCC(c7cc8c(cc7F)c(N7CCC(=O)NC7=O)nn8C)CC6)CC5)C4)c(=O)c3c2F)c1C#N` (single isomer, unassigned) [Compound 41], where the note is “Homo sapiens, 96 h”, the GI50 was less than 1 µM and the Emax was less than 50%.

As to `CCN(C)S(=O)(=O)Nc1ccc(F)c(Oc2ccc3ncn(C4CC5(CCN(C6CCC(c7cc8c(cc7F)c(N7CCC(=O)NC7=O)nn8C)CC6F)CC5)C4)c(=O)c3c2)c1C#N` (single isomer, unassigned) [Compound 86], the GI50 is less than 1 µM and the “CTGlo A375.11 96 hours Emax” value is reported as “*** (<=50%)”.

As to `CO[C@@H]1CCN(S(=O)(=O)Nc2ccc(F)c(Oc3ccc4ncn([C@H]5COC6(CCN(C7CCC(c8ccc(NC9CCC(=O)NC9=O)cc8F)CC7)CC6)C5)c(=O)c4c3)c2C#N)C1` (single isomer, unassigned) [Compound 109], where the note is “Homo sapiens, 96 h”, the GI50 is less than 1 µM and the Emax is less than 50%.

Consider `CCN(C)S(=O)(=O)Nc1ccc(F)c(Oc2ccc3ncn(C4CC5(CCN(C6CCC(c7ccc(NC8CCC(=O)NC8=O)cc7F)CC6)CC5)C4)c(=O)c3c2)c1C#N` (single isomer, unassigned) [Compound 6, 6-[2-cyano-3-[[ethyl(methyl)sulfamoyl]amino]-6-fluoro-phenoxy]-3-[7-[4-[4-[(2,6-dioxo-3-piperidyl)amino]-2-fluoro-phenyl]cyclohexyl]-7-azaspiro[3.5]nonan-2-yl]-4-oxo-quinazoline], for which, under “Homo sapiens, 96 h”, the GI50 was less than 1 µM and the Emax is less than 50%.

Where the note is “Homo sapiens, 96 h”, `CN(CCO)S(=O)(=O)Nc1ccc(F)c(Oc2ccc3ncn(C4CC5(CCN(C6CCC(c7cc8c(cc7F)c(N7CCC(=O)NC7=O)nn8C)CC6)CC5)C4)c(=O)c3c2)c1C#N` (single isomer, unassigned) [Compound 81, 6-[2-cyano-6-fluoro-3-[[2-hydroxyethyl(methyl)sulfamoyl]amino]phenoxy]-3-[7-[4-[3-(2,4-dioxohexahydropyrimidin-1-yl)-5-fluoro-1-methyl-indazol-6-yl]cyclohexyl]-7-azaspiro[3.5]nonan-2-yl]-4-oxo-quinazoline] had a 50% growth inhibitory concentration (GI50) of 1 to 10 µM and an Emax of 50 to 90%.

Where the note is “Homo sapiens, 96 h”, `CCN(C)S(=O)(=O)Nc1ccc(F)c(Oc2ccc3ncn(C4CC5(CCN(C6CC7(CCN(c8cc9c(cc8F)c(N8CCC(=O)NC8=O)nn9C)CC7)C6)CC5)C4)c(=O)c3c2)c1C#N` (stereo not shown) [Compound 198, 6-[2-cyano-3-[[ethyl(methyl)sulfamoyl]amino]-6-fluoro-phenoxy]-3-[7-[7-[3-(2,4-dioxohexahydropyrimidin-1-yl)-5-fluoro-1-methyl-indazol-6-yl]-7-azaspiro[3.5]nonan-2-yl]-7-azaspiro[3.5]nonan-2-yl]-4-oxo-quinazoline] returned a GI50 of 1 to 10 µM and an Emax of less than 50%.

These data come from patent US20260297060A1, “COMPOUNDS FOR THE DEGRADATION OF MUTANT BRAF” (C4 THERAPEUTICS, INC., priority 2023, published 2026).
